Data on 2 compounds can be found in article PMC4962012, “Pretrichodermamides D–F from a Marine Algicolous Fungus Penicillium sp. KMM 4672” (Marine Drugs, 2016).

Where only a bound is given, the exact number is not on record here.

One data set deals with CD-I mouse splenocytes. Nature of the data set: Cytotoxicity against mouse splenocytes. In kind it is cell-based. The conditions noted are these: non-malignant murine splenocytes. The method, then:
(§1) The in vitro cytotoxicity of individual substances was evaluated using the MTT (3-(4,5-dimethylthiazol-2-yl)-2,5-diphenyltetrazolium bromide) assay, which was performed as previously described. Cytotoxicity against CD-I mouse splenocytes was determined according to Freshney. Docetaxel was used as a reference substance.

Data set [1] can be described thus: MTT cytotoxicity assay, LNCaP cells. The format is cell-based. The conditions noted are these: human, LNCaP prostate cancer cells. How it is done: (§2) The human prostate cancer cells lines 22Rv1, PC-3, and LNCaP were purchased from ATCC. Cell lines were cultured according to the manufacturers instructions in 10% FBS/RPMI media (Invitrogen) with (for LNCaP) or without (for 22Rv1 and PC-3) 1 mM sodium pyruvate (Invitrogen). Cells were continuously kept in culture for a maximum of 3 months and were routinely inspected microscopically for stable phenotype and regularly checked for contamination with mycoplasma. Cell line authentication was performed by DSMZ (Braunschweig, Germany) using highly polymorphic short tandem repeat loci.
as §1

Data set [2] can be described thus: MTT cytotoxicity assay, 22Rv1 cells. In kind it is cell-based. As to conditions: human, 22Rv1 prostate cancer cells. How it is done: as §2, §1
In general terms: Formazan colour is commonly taken as a measure of viable cells.

The subject of data set [3] is a number of different cancer cells. Also noted: method as in PMID 26039736. As to conditions: up to 10 µM; cited from earlier work.
Data set [4] is described as follows: MTT cytotoxicity assay, PC-3 cells. As to conditions: human, PC-3 prostate cancer cells. In kind it is cell-based. The method, then:
as §2, §1

Data set [5] relates to human prostate cancer 22Rv1 cells. Nature of the data set: Apoptosis induction analysis (flow cytometry, PI staining, sub-G1 peak). The format is cell-based. As to conditions: treatment with 1 µM for 48 h. How it is done:
as §2
The cell cycle distribution was analyzed by flow cytometry using PI staining as described before with slight modifications. In brief, cells were pre-incubated overnight in 6-well plates (2 × 10^5 cells/well in 2 mL/well). The medium was changed to fresh medium containing different concentrations of the substances. After 48 h of treatment, cells were harvested with a trypsin-EDTA solution, fixed with 70% EtOH, stained, and analyzed by FACS. The results were quantitatively analyzed using Cell Quest Pro software (Version 5.2.1., BD Bioscience, Bedford, MA, USA). Cells appeared at sub-G1 peak were assumed as apoptotic.
In general terms: Flow cytometry measures light scatter and fluorescence of single cells or particles in a stream.

The test system of the next data set is CD-I mouse erythrocytes. Nature of the data set: Hemolytic activity. In kind it is cell-based. How it is done:
The hemolytic activity was evaluated using CD-I mouse erythrocytes as previously described.

Turning to `COc1ccc(C2SSC34CC5(O)C(Cl)C=CC(O)C5ON3C(=O)C2N(C)C4=O)c(O)c1OC` (centres unmarked) [compound 5, N-methylpretrichodermamide B], the “ED50 (cytotoxicity for splenocytes)” value in the data set on CD-I mouse splenocytes turned out to be 62100 nM. In addition, the IC50 (commonly the concentration that inhibits the measured activity by half) in data set [1] is 1760 nM; in data set [2], 510 nM; in data set [4], 5110 nM. Further, the “cytotoxic effect against a number of different cancer cells” value in data set [3] is on record as “did not show any cytotoxic effect”. Besides, in data set [5], the apoptosis is listed as 31.3% ± 8.2. Also, the hemolytic activity result with CD-I mouse erythrocytes (murine erythrocytes, up to 100 µM) was “did not show hemolitic activity”. Moreover, the “ED50 (erythrocytes)” value with CD-I mouse erythrocytes (non-malignant murine erythrocytes) was > 100000 nM.
For `CC(=O)O[C@@]12CO[C@@H]1C[C@H](O)[C@@]1(C)C(=O)[C@H](O)C3=C(C)[C@@H](OC(=O)[C@H](O)[C@@H](NC(=O)OC(C)(C)C)c4ccccc4)C[C@@](O)([C@@H](OC(=O)c4ccccc4)[C@H]21)C3(C)C` [docetaxel, reference compound], the values for the IC50 in data set [1], in data set [2] and in data set [4] were 4 nM, 13 nM and 15 nM, respectively.
